Earlier results on one compound are cited in patent publication US9457321B2, “Furanone containing polymer compound with bacteria-adhesion properties” (Stellenbosch University, priority 2012, dated 2016).

The data set concerns P. aeruginosa, S. aureus, E. coli and Enterococci.

As to `CC1=C(O)C(=O)C(C)O1` (stereo not shown) [DMHF, 2,5-dimethyl-4-hydroxy-3(2H)-furanone], the antimicrobial efficacy result is on record as “exceptional antimicrobial efficacy”.
